In test [1] the target is T1, human serum albumin (HSA) (Homo sapiens, UniProt P02768).
T1 construct: purchased Dessau company, Germany
The test can be described thus: Binding constants relative to HSA by equilibrium dialysis (Scatchard plot). The following applies: pH 7.4, Scatchard plot. An excerpt: A Scatchard plot is used to determine the binding constants relative to human serum albumin (HSA from the Dessau company, Germany) at pH 7.4 by means of equilibrium dialysis (equilibrium dialyzer from Spectrum, Inc., USA; dialysis membrane: cut-off MW 10000) for the prepared doxorubicin derivatives, all including an acid-labile hydrazone bond as the predetermined breaking point, and for doxorubicin.
For orientation: In equilibrium dialysis free small molecules cross a membrane that holds back macromolecules.

Another test concerns the target HSA (Homo sapiens, UniProt P02768). Nature of the test: Incubation with HSA followed by size-exclusion chromatography (Sephadex G-25). In kind it is binding. The following applies: incubation of only a few seconds with HSA (or blood plasma), mole ratio 1:1, Sephadex G-25. (In general: Size exclusion chromatography separates by hydrodynamic size, large species first.)

Test [2] concerns the target T1, human serum albumin (HSA). The test can be described thus: Binding constant relative to HSA as stated in text. From the text:
Thus BC-DOX1, after being brought into contact with HSA or after injection into the bloodstream, is tightly bound to that blood protein. Since BC-DOX1 in addition has a sulfonylhydrazone bond as an acid-labile bond between the carrier-molecule-affinitive substance and the cytostatic agent, in the acid environment of tumor tissue or in the acid intracellular compartments of the tumor cell, doxorubicin is released as the active substance so it can exert its therapeutic effect there.

For another test, the target named is transferrin (Homo sapiens, UniProt P02787). Nature of the test: Incubation with transferrin followed by size-exclusion chromatography (Sephadex G-25). The class given is binding.
Chain of transferrin (P02787 20-698, species assumed): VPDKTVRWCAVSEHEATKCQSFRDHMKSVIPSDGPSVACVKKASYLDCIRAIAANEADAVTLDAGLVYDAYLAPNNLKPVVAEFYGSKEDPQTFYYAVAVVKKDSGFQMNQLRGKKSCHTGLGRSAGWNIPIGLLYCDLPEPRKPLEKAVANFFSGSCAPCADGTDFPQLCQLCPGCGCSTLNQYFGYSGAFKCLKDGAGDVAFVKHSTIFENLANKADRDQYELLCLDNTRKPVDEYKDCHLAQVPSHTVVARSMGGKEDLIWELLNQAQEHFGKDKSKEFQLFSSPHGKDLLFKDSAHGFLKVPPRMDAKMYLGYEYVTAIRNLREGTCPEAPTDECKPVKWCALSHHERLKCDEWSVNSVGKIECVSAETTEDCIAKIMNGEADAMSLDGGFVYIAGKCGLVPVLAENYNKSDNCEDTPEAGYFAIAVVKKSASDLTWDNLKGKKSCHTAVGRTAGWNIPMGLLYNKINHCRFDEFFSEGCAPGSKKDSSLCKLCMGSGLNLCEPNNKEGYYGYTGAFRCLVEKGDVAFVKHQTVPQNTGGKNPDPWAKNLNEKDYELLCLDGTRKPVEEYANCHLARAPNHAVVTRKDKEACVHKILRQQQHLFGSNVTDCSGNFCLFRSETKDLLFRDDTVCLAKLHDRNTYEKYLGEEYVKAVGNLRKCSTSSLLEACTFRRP
Test [3] deals with T1, human serum albumin (HSA). The following applies: Literature value (Demant et al., Biochemical Pharmacology 55, 27-32, 1998); cited from earlier work.

T1 sequence (P02768 25-609): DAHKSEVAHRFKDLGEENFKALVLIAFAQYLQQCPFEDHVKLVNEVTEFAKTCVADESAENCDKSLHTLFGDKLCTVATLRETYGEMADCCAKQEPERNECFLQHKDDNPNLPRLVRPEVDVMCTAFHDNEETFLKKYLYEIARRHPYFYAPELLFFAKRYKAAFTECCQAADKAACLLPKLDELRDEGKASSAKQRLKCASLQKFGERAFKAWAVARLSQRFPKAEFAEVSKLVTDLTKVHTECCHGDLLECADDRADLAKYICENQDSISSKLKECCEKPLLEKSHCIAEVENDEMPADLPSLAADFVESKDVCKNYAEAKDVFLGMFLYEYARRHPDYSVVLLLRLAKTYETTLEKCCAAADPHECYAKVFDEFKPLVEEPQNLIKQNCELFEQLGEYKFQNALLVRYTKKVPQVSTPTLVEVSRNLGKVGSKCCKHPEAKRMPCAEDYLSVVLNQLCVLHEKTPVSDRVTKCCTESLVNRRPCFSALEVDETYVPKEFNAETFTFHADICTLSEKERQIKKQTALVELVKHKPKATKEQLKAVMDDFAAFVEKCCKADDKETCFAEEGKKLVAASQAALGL
Chain of HSA (P02768 25-609): as above

As to `CCCCCCCCCCCCCCCCCC(=O)N/N=C(\CO)[C@@]1(O)Cc2c(O)c3c(c(O)c2[C@@H](O[C@H]2CC(N)[C@H](O)C(C)O2)C1)C(=O)c1c(OC)cccc1C3=O` (stereo partly drawn) [DOXO-SAH], the “KA relative to HSA” value in test [1] was 6.1 × 10^6.

For `COc1cccc2c1C(=O)c1c(O)c3c(c(O)c1C2=O)C[C@@](O)(/C(CO)=N/NS(=O)(=O)c1ccccc1/C(=C1/C=C(Br)C(=O)C(Br)=C1C)c1cc(Br)c(O)c(Br)c1C)C[C@@H]3O[C@H]1CC(N)[C@H](O)C(C)O1` (stereo partly drawn) [BC-DOX1], the “behavior in size-exclusion chromatography after incubation with HSA” value at HSA is “behavior like that of bromcresol green or bromcresol green sulfonic acid”. Moreover, the “binding constant relative to human serum albumin compared with free doxorubicin” value in test [2] is listed as “several orders of magnitude greater”.

Turning to `Cc1c(C2(c3cc(Br)c(O)c(Br)c3C)OS(=O)(=O)c3ccccc32)cc(Br)c(O)c1Br` [Bromcresol green, reference compound], the “affinity for other plasma proteins” value at transferrin is given as “do not exhibit high affinity”. Moreover, the “behavior in size-exclusion chromatography after incubation with HSA” value at HSA is given as “elute together with HSA”.

With `COc1cccc2c1C(=O)c1c(O)c3c(c(O)c1C2=O)C[C@](O)(/C(CO)=N/NC(=O)CCOCCOCCOCCOCCOCCOCCNC(=O)c1cc(I)cc(I)c1I)C[C@H]3O[C@H]1CC(N)[C@H](O)C(C)O1` (stereo partly drawn) [DOXO-TIB-HEXA], the “KA relative to HSA” value in test [1] is 5.5 × 10^5.

`COc1cccc2c1C(=O)c1c(O)c3c(c(O)c1C2=O)C[C@@](O)(C(=O)CO)C[C@@H]3O[C@H]1C[C@H](N)[C@H](O)[C@H](C)O1` [Doxorubicin, doxorubicin, reference compound]: the “KA relative to HSA” value in test [1] is 2.9 × 10^3. Moreover, the “KA relative to HSA, literature value” in test [3] is 2.7 × 10^3.

On to `COc1cccc2c1C(=O)c1c(O)c3c(c(O)c1C2=O)C[C@](O)(/C(CO)=N/NC(=O)CCOCCOCCOCCOCCOCCOCCNS(=O)(=O)c1ccc2c(N=Nc4ccccc4)c(O)ccc2c1)C[C@@H]3O[C@H]1CC(N)[C@H](O)C(C)O1` (stereo partly drawn) [DOXO-CROC-HEXA], for which the “KA relative to HSA” value in test [1] is recorded as 7.2 × 10^7.

(Values after US7902144B2, “Therapeutic and diagnostic ligand systems comprising transport molecule binding properties and medicaments containing the same” (KTB Tumorforschungsgesellschaft mbH, priority 2000, dated 2011).)
